≈ marks a conversion by molar mass, not a printed value.
Assays:
[1] = system: PC3; test: In vitro anti-proliferative activity, MTT assay; format: cell-based; conditions: Homo sapiens, PC-3, 24 h, read-out: In vitro cytotoxicity IC50 PC3
[2] = system: HepG-2; test: In vitro anti-proliferative activity, MTT assay; format: cell-based; conditions: Homo sapiens, HepG2, 24 h, read-out: In vitro cytotoxicity IC50 HepG-2
[3] = system: MCF-7; test: In vitro anti-proliferative activity, MTT assay; format: cell-based; conditions: Homo sapiens, MCF7, 24 h, read-out: In vitro cytotoxicity IC50 MCF-7
[4] = system: TNF-α; test: TNF-α level in HepG-2 cell supernatant, ELISA; format: cell-based, human; conditions: HepG-2 supernatant, 10 μM, 72 h, control 162.5
[5] = system: caspase-8; test: Caspase-8 level in HepG-2 cell supernatant, ELISA; format: cell-based, human; conditions: for increase of caspase-8 level: HepG-2 cells, versus control cells; for CASPASE-8 level: HepG-2 supernatant, ELISA, 10 μM, 72 h, control 1.08
[6] = system: VEGF; test: VEGF level in HepG-2 cell supernatant, ELISA; format: cell-based, human; conditions: HepG-2 supernatant, 10 μM, 72 h, control 432.5
[7] = system: Vero cells; test: Cytotoxicity against Vero cells, MTT assay; format: cell-based; conditions: for Selectivity index (SI) HepG-2: SI = cytotoxicity against Vero cells/cytotoxicity against HepG-2 cell line; for Selectivity index (SI) PC3: SI = cytotoxicity against Vero cells/cytotoxicity against PC3 cell line
[8] = Cytotoxicity against Vero cells, MTT assay; format: cell-based; conditions: African green monkey, Vero cells (normal, non-cancerous cell line)
[9] = system: NF-κB P65; test: NF-κB P65 level in HepG-2 cell lysate, ELISA; format: cell-based, human; conditions: 72 h, control 278.1

SMILES	IC50 [1] [µg/mL]	IC50 [2] [µg/mL]	IC50 [3] [µg/mL]	TNF-α level [4] [pg/mL]	increase of caspase-8 level [5]	CASPASE-8 level [5] [ng mL^−1]	VEGF level [6] [pg/mL]	Selectivity index (SI) HepG-2 [7]	Selectivity index (SI) MCF-7 ([7]; SI = cytotoxicity against Vero cells/cytotoxicity against MCF-7 cell line)	Selectivity index (SI) PC3 [7]	IC50 [8] [µg/mL]	NFκB P65 level [9] [pg/mL]
Cc1ccc(S(=O)(=O)NNc2nc(Cl)nc3cccc(Cl)c23)cc1 [Compound 19a, N′-(2,5-Dichloroquinazolin-4-yl)-4-methylbenzenesulfonohydrazide]	21.5 ± 1.6 (≈ 56 µM)	19.1 ± 1.5 (≈ 49.8 µM)	12.8 ± 1 (≈ 33.3 µM)									
CCNc1nc(Nc2ccc(F)c(Cl)c2)c2ccccc2n1 [Compound 7b, N ^4-(3-Chloro-4-fluorophenyl)-N^2-ethylquinazoline-2,4-diamine]	15.5 ± 1.3 (≈ 48.9 µM)	11.7 ± 0.8 (≈ 36.9 µM)	9.45 ± 0.9 (≈ 29.8 µM)	79.3	threefold increase	3.2	218.5	13.78	17.04	10.40	163.6 ± 1.12 (≈ 516 µM)	113.7
O=S(=O)(NNc1nnc(Cl)c2ccccc12)c1ccccc1 [Compound 24c, N′-(4-Chlorophthalazin-1-yl)benzenesulfonohydrazide]	14.9 ± 1.1 (≈ 44.6 µM)	7.96 ± 0.5 (≈ 23.8 µM)	8.12 ± 0.7 (≈ 24.3 µM)									
CNc1nc(Nc2ccc(F)c(Cl)c2)c2ccccc2n1 [Compound 7a, N ^4-(3-Chloro-4-fluorophenyl)-N^2-methylquinazoline-2,4-diamine]	47.2 ± 2.8 (≈ 156 µM)	40.5 ± 2.8 (≈ 134 µM)	28.1 ± 2.1 (≈ 92.9 µM)									
O=C1CCC(Nc2nc(Cl)nc3cccc(Cl)c23)C(=O)N1 (stereo not shown) [Compound 13a, 3-((2,5-Dichloroquinazolin-4-yl)amino)piperidine-2,6-dione]	54.3 ± 3 (≈ 167 µM)	46.3 ± 3.1 (≈ 142 µM)	35.3 ± 2.4 (≈ 109 µM)									
O=C1CCC(N2C(=O)c3ccccc3C2=O)C(=O)N1 (stereo not shown) [Thalidomide, thalidomide, reference compound]	16.9 ± 0.7 (≈ 65.3 µM)	11.3 ± 0.54 (≈ 43.6 µM)	14.6 ± 0.57 (≈ 56.5 µM)	53.1	8 folds	8.3	153.2					110.5
O=S(=O)(NNc1nnc(Cl)c2ccccc12)c1ccc(F)cc1 [Compound 24b, N′-(4-Chlorophthalazin-1-yl)-4-fluorobenzenesulfonohydrazide]	4.11 ± 0.3 (≈ 11.7 µM)	2.51 ± 0.1 (≈ 7.11 µM)	5.8 ± 0.4 (≈ 16.4 µM)	82.5	about 7 folds	6.9	185.3	65.18		39.80	161.1 ± 1.42 (≈ 457 µM)	76.5
Fc1ccc(Nc2nc(Cl)nc3ccc(Cl)cc23)cc1Cl [Compound 11b, 2,6-Dichloro-N-(3-chloro-4-fluorophenyl)quinazolin-4-amine]	51.2 ± 3.5 (≈ 149 µM)	38.7 ± 2.8 (≈ 113 µM)	45.9 ± 3 (≈ 134 µM)									
O=S(=O)(NNc1nc(Cl)nc2cccc(Cl)c12)c1ccc(F)cc1 [Compound 19b, N′-(2,5-Dichloroquinazolin-4-yl)-4-fluorobenzenesulfonohydrazide]	32.7 ± 2.3 (≈ 84.5 µM)	28.9 ± 2.2 (≈ 74.7 µM)	20.5 ± 1.5 (≈ 52.9 µM)									
O=C1CCC(Nc2nc(Cl)nc3ccc(Cl)cc23)C(=O)N1 (stereo not shown) [Compound 13b, 3-((2,6-Dichloroquinazolin-4-yl)amino)piperidine-2,6-dione]	38.4 ± 3.1 (≈ 118 µM)	59 ± 3.3 (≈ 181 µM)	29.3 ± 2.3 (≈ 90.2 µM)									
Fc1ccc(Nc2nc(Cl)nc3ccccc23)cc1Cl [Compound 6, 2-Chloro-N-(3-chloro-4-fluorophenyl)quinazolin-4-amine]	85 ± 4.7 (≈ 276 µM)	74.8 ± 4.1 (≈ 243 µM)	81.5 ± 4.2 (≈ 265 µM)									
NC(=O)NNc1nc(Cl)nc2ccc(Cl)cc12 [Compound 15b, 2-(2,6-Dichloroquinazolin-4-yl)hydrazine-1-carboxamide]	13.8 ± 1.2 (≈ 50.7 µM)	16.2 ± 1.4 (≈ 59.5 µM)	9.87 ± 0.9 (≈ 36.3 µM)									
Fc1ccc(Nc2nc(Cl)nc3cccc(Cl)c23)cc1Cl [Compound 11a, 2,5-Dichloro-N-(3-chloro-4-fluorophenyl)quinazolin-4-amine]	91.3 ± 4.9 (≈ 266 µM)	77.2 ± 4.2 (≈ 225 µM)	86.1 ± 4.4 (≈ 251 µM)									
NC(=O)NNc1nc(Cl)nc2cccc(Cl)c12 [Compound 15a, 2-(2,5-Dichloroquinazolin-4-yl)hydrazine-1-carboxamide]	26.1 ± 2 (≈ 95.8 µM)	24.5 ± 2 (≈ 90.1 µM)	17.3 ± 1.3 (≈ 63.7 µM)									
Cc1ccc(S(=O)(=O)NNc2nnc(Cl)c3ccccc23)cc1 [Compound 24a, N′-(4-Chlorophthalazin-1-yl)-4-methylbenzenesulfonohydrazide]	8.63 ± 0.6 (≈ 24.7 µM)	3.87 ± 0.2 (≈ 11.1 µM)	6.07 ± 0.7 (≈ 17.4 µM)									

Source: paper PMC9680624 (RSC Advances, 2022)
